50 compounds from patent US12162858B2, “Quinoline derivatives as inhibitors of AXL/MER RTK and CSF1R” (QURIENT CO., LTD., priority 2018, dated 2024) can be followed below.

The subject of one assay is CSF1R (M-NFS-60 cells). The assay is described as follows: Cell Titer-Glo viability assay using M-NFS-60 cells. It is filed as cell-based. Particulars: Mus musculus, read-out: Cellular CSF1R activity by M-NFS-60 viability assay (IC50 activity range). Put shortly: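 M-NFS-60 cells grown with 62 ng/ml recombinant human M-CSF, seeded at 2×10^5 cells/well and incubated at 37 °C/5% CO2. Compounds given as 3-fold serial dilutions (10 doses); viability read by CellTiter-Glo luminescence, sigmoidal dose-response fit.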
For orientation: ATP-based viability assays read luminescence as a measure of living cells.

The next assay addresses CSF1R (Homo sapiens, UniProt P07333). The assay is described as follows: Cellular CSF1R inhibition ELISA (p-CSF1R, M-CSF-induced) using THP-1 cells. Details: THP-1 cells act as a model for human monocytes; endogenous in cells; host or cells: THP-1. It is filed as cell-based. A digest of the protocol: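 THP-1 cells (2×10^5/well, RPMI/10% FBS) were treated with compound, 10 doses in 3-fold steps, for 24 h at 37 °C in 0.2% DMSO final. They were then stimulated 5 min with human M-CSF (10 ng/ml final) and lysed. p-CSF1R was read by sandwich ELISA (HRP/TMB), with a sigmoidal dose-response fit.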
In general terms: ELISA stands for enzyme-linked immunosorbent assay.

Sequence of CSF1R (P07333 20-972): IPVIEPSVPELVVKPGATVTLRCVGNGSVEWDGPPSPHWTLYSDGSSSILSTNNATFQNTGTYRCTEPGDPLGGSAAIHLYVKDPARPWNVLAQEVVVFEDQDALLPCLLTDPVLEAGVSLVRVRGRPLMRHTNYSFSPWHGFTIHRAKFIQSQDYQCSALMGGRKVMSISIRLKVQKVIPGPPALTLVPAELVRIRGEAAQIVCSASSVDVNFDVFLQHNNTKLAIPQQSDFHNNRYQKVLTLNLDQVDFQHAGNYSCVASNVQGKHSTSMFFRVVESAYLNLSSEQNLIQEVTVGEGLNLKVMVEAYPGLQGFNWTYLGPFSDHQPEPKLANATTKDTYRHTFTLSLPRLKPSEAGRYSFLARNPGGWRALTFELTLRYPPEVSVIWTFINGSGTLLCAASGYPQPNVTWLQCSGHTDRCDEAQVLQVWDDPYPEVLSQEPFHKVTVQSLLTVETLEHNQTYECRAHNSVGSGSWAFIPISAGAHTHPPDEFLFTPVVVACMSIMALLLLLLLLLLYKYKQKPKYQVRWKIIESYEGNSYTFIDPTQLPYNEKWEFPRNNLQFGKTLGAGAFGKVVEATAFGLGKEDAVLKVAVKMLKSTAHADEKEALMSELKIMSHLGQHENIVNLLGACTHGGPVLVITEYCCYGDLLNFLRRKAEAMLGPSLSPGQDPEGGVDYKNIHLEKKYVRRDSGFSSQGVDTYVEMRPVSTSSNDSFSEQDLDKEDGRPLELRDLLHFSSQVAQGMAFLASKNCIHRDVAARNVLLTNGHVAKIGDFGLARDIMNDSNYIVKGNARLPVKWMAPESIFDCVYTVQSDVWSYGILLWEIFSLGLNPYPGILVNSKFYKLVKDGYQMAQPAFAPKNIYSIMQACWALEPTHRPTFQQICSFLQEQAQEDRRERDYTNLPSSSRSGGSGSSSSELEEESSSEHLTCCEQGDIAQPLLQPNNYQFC

One may read the IC50 as the midpoint of a concentration-inhibition curve. `CCn1nc(C(=O)Nc2ccc(Oc3ccnc4cc(OC)c(OC)cc34)cn2)c(OCC(F)(F)F)c1C` [Compound 1]: the 50% inhibitory concentration (IC50) was under 1000 nM in the assay on CSF1R (M-NFS-60 cells) and under 500 nM against CSF1R.
For the compound `COc1cc2nccc(Oc3ccc(NC(=O)c4nn(C(C)C)c(C)c4OCC(F)(F)F)nc3)c2cc1OC` [Compound 2], the IC50 in the assay on CSF1R (M-NFS-60 cells) is under 1000 nM; against CSF1R it was under 500 nM.
In the case of `COc1cc2nccc(Oc3ccc(NC(=O)c4nn(C5CC5)c(C(C)=O)c4OCC(F)(F)F)nc3)c2cc1OC` [Compound 3], the IC50 in the assay with CSF1R (M-NFS-60 cells) was at least 10000 nM; against CSF1R, under 500 nM.
In the same order, the values of `COc1cc2nccc(Oc3ccc(NC(=O)c4nn(C5CCOC5)cc4OCC(F)(F)F)nc3)c2cc1OC` (stereo not shown) [Compound 13] are under 1000 nM and under 500 nM.
In the same order, the values of `CCCn1cc(OCCF)c(C(=O)Nc2ccc(Oc3ccnc4cc(OC)c(OC)cc34)cn2)n1` [Compound 14] are under 1000 nM and under 500 nM.
In the same order, the values of `CCCn1cc(OCCC(O)CO)c(C(=O)Nc2ccc(Oc3ccnc4cc(OC)c(OC)cc34)cn2)n1` (stereo not shown) [Compound 15] are 1000 to 10000 nM and at least 1000 nM.
With `COc1cc2nccc(Oc3ccc(NC(=O)c4nn(CC(C)O)cc4OCC(F)(F)F)nc3)c2cc1OC` (stereo not shown) [Compound 17], the IC50 with CSF1R (M-NFS-60 cells) was under 1000 nM; on CSF1R, under 500 nM.
For `COc1cc2nccc(Oc3ccc(NC(=O)c4nn(CCCO)cc4OCC(F)(F)F)nc3)c2cc1OC` [Compound 18] the same measures were under 1000 nM and under 500 nM.
Regarding `COc1cc2nccc(Oc3ccc(NC(=O)c4nn(CC(C)=O)cc4OCC(F)(F)F)nc3)c2cc1OC` [Compound 19], the results for the IC50 with CSF1R (M-NFS-60 cells) and on CSF1R were under 1000 nM and under 500 nM, respectively.
In the same order, the values of `CCC(=O)n1cc(OCC(F)(F)F)c(C(=O)Nc2ccc(Oc3ccnc4cc(OC)c(OC)cc34)cn2)n1` [Compound 20] are under 1000 nM and under 500 nM.
For `COc1cc2nccc(Oc3ccc(NC(=O)c4nn(CC(C)C)cc4OCC(F)(F)F)nc3)c2cc1OC` [Compound 21] the same measures were under 1000 nM and under 500 nM.
For `COc1cc2nccc(Oc3ccc(NC(=O)c4nn(C(C)(C)C)cc4OCC(F)(F)F)nc3)c2cc1OC` [Compound 22] the same measures were under 1000 nM and under 500 nM.
`CCCn1cc(NCC(F)(F)F)c(C(=O)Nc2ccc(Oc3ccnc4cc(OC)c(OC)cc34)cn2)n1` [Compound 23]: the IC50 in the assay with CSF1R (M-NFS-60 cells) is under 1000 nM; against CSF1R it was under 500 nM.
For the compound `COc1cc2nccc(Oc3ccc(NC(=O)c4nn(C5CCC5)cc4OCC(F)(F)F)nc3)c2cc1OC` [Compound 24], the IC50 was under 1000 nM in the assay on CSF1R (M-NFS-60 cells) and under 500 nM against CSF1R.
Consider `CCCn1cc(OCC(F)(F)F)c(C(=O)Nc2ccc(Oc3ccnc4cc(OC)c(OC)cc34)c(F)c2)n1` [Compound 25], for which the concentration for half-maximal inhibition (IC50) in the assay on CSF1R (M-NFS-60 cells) lay in the range of 1000 to 10000 nM; at CSF1R, 500 to 1000 nM.
For `CCCn1cc(OCC(F)(F)F)c(C(=O)Nc2ccc(Oc3ccnc4cc(OC)c(OC)cc34)c(C)c2)n1` [Compound 26] the same measures were 1000 to 10000 nM and under 500 nM.
In the same order, the values of `CCCn1cc(OCC(F)(F)F)c(C(=O)Nc2ccc(Oc3ccnc4cc(OC)c(OC)cc34)cc2C)n1` [Compound 27] are 1000 to 10000 nM and at least 1000 nM.
In the same order, the values of `CCCn1cc(OCC(F)(F)F)c(C(=O)Nc2ccc(Oc3ccnc4cc(OC)c(OC)cc34)cc2F)n1` [Compound 28] are 1000 to 10000 nM and 500 to 1000 nM.
With `COc1cc2nccc(Oc3ccc(NC(=O)c4nn(C[C@@H](C)O)cc4OCC(F)(F)F)nc3)c2cc1OC` [Compound 29], the IC50 was under 1000 nM in the assay on CSF1R (M-NFS-60 cells) and under 500 nM against CSF1R.
For `COc1cc2nccc(Oc3ccc(NC(=O)c4nn(C[C@H](C)O)cc4OCC(F)(F)F)nc3)c2cc1OC` [Compound 30] the same measures were under 1000 nM and under 500 nM.
For `CCCn1cc(OCCC(F)(F)F)c(C(=O)Nc2ccc(Oc3ccnc4cc(OC)c(OC)cc34)cn2)n1` [Compound 31] the same measures were under 1000 nM and under 500 nM.
In the same order, the values of `CCCn1cc(OCC(F)(F)F)c(C(=O)Nc2ccc(Oc3ccnc4cc(OC)c(OC)cc34)nn2)n1` [Compound 32] are 1000 to 10000 nM and under 500 nM.
Take `COc1cc2nccc(Oc3ccc(NC(=O)c4nn(C)cc4OCC(F)(F)F)nc3)c2cc1OC` [Compound 33]: the figures for the IC50 with CSF1R (M-NFS-60 cells) and on CSF1R were under 1000 nM and under 500 nM, respectively.
For `CCCn1cc(N(C)CC2CCOCC2)c(C(=O)Nc2ccc(Oc3ccnc4cc(OC)c(OC)cc34)cn2)n1` [Compound 34] the same measures were 1000 to 10000 nM and at least 1000 nM.
For `CCCn1cc(OC(C)C)c(C(=O)Nc2ccc(Oc3ccnc4cc(OC)c(OC(F)(F)F)cc34)c(F)c2)n1` [Compound 35] the same measures were 1000 to 10000 nM and at least 1000 nM.
In the case of `CCCCn1cc(OCC(F)(F)F)c(C(=O)Nc2ccc(Oc3ccnc4cc(OC)c(OC)cc34)cn2)n1` [Compound 36], the results for the half-maximal inhibitory concentration (IC50) in the assay on CSF1R (M-NFS-60 cells) and against CSF1R were under 1000 nM and under 500 nM, respectively.
For `COc1cc2nccc(Oc3ccc(NC(=O)c4nn(C)cc4OCC(F)(F)F)cc3C)c2cc1OC` [Compound 37] the same measures were under 1000 nM and under 500 nM.
Take `CCCn1cc(OCC(F)(F)F)c(C(=O)Nc2ccc(Oc3ccnc4cc(OC)c(OC)cc34)cc2)n1` [Compound 38]: the IC50 with CSF1R (M-NFS-60 cells) is under 1000 nM; against CSF1R, 500 to 1000 nM.
For `COc1cc2nccc(Oc3ccc(NC(=O)c4nn(CCC#N)cc4OCC(F)(F)F)nc3)c2cc1OC` [Compound 39] the same measures were under 1000 nM and under 500 nM.
For `COc1cc2nccc(Oc3ccc(NC(=O)c4nn(C5CCCC5)cc4OCC(F)(F)F)nc3)c2cc1OC` [Compound 40] the same measures were under 1000 nM and under 500 nM.
In the same order, the values of `COc1cc2nccc(Oc3ccc(NC(=O)c4nn(CC5CC5)cc4OCC(F)(F)F)nc3)c2cc1OC` [Compound 41] are under 1000 nM and under 500 nM.
Regarding `COc1cc2nccc(Oc3ccc(NC(=O)c4nn(CC5CCC5)cc4OCC(F)(F)F)nc3)c2cc1OC` [Compound 42], the results for the IC50 in the assay on CSF1R (M-NFS-60 cells) and against CSF1R were under 1000 nM and under 500 nM, respectively.
For `COc1cc2nccc(Oc3ccc(NC(=O)c4nn(CC5CCCCC5)cc4OCC(F)(F)F)nc3)c2cc1OC` [Compound 43], the concentration for half-maximal inhibition (IC50) in the assay on CSF1R (M-NFS-60 cells) was under 1000 nM; on CSF1R it was under 500 nM.
For `COc1cc2nccc(Oc3ccc(NC(=O)c4nn(CC5CCOC5)cc4OCC(F)(F)F)nc3)c2cc1OC` (stereo not shown) [Compound 44] the same measures were under 1000 nM and under 500 nM.
For `COc1cc2nccc(Oc3ccc(NC(=O)c4nn(C)cc4OCC(F)(F)F)c(F)c3)c2cc1OC` [Compound 45] the same measures were 1000 to 10000 nM and under 500 nM.
In the same order, the values of `COc1cc2nccc(Oc3ccc(NC(=O)c4nn(CCO)cc4OCC(F)(F)F)c(F)c3)c2cc1OC` [Compound 46] are 1000 to 10000 nM and 500 to 1000 nM.
On to `COc1cc2nccc(Oc3ccc(NC(=O)c4nn(C5CCCC5)cc4OCC(F)(F)F)c(F)c3)c2cc1OC` [Compound 47], for which the values for the IC50 in the assay with CSF1R (M-NFS-60 cells) and against CSF1R were under 1000 nM and 500 to 1000 nM, respectively.
For `COc1cc2nccc(Oc3ccc(NC(=O)c4nn(CC(C)C)cc4OCC(F)(F)F)c(F)c3)c2cc1OC` [Compound 48] the same measures were under 1000 nM and 500 to 1000 nM.
For `COCCn1cc(OCC(F)(F)F)c(C(=O)Nc2ccc(Oc3ccnc4cc(OC)c(OC)cc34)cc2F)n1` [Compound 49] the same measures were 1000 to 10000 nM and at least 1000 nM.
For `COc1cc2nccc(Oc3ccc(NC(=O)c4nn(C)cc4OCC(F)(F)F)cc3F)c2cc1OC` [Compound 50] the same measures were 1000 to 10000 nM and 500 to 1000 nM.
As for `COc1cc2nccc(Oc3ccc(NC(=O)c4nn(CCO)cc4OCC(F)(F)F)cc3F)c2cc1OC` [Compound 51], the IC50 in the assay with CSF1R (M-NFS-60 cells) was under 1000 nM; on CSF1R, under 500 nM.
For `COc1cc2nccc(Oc3ccc(NC(=O)c4nn(C5CCCC5)cc4OCC(F)(F)F)cc3F)c2cc1OC` [Compound 52] the same measures were under 1000 nM and at least 1000 nM.
In the same order, the values of `COc1cc2nccc(Oc3ccc(NC(=O)c4nn(CC(C)C)cc4OCC(F)(F)F)cc3F)c2cc1OC` [Compound 53] are under 1000 nM and 500 to 1000 nM.
In the same order, the values of `COCCn1cc(OCC(F)(F)F)c(C(=O)Nc2ccc(Oc3ccnc4cc(OC)c(OC)cc34)c(F)c2)n1` [Compound 54] are under 1000 nM and at least 1000 nM.
Consider `COc1cc2nccc(Oc3ccc(NC(=O)c4nn(C5CCOC5)cc4OCC(F)(F)F)cc3F)c2cc1OC` (stereo not shown) [Compound 55], for which the figures for the IC50 in the assay on CSF1R (M-NFS-60 cells) and on CSF1R were 1000 to 10000 nM and at least 1000 nM, respectively.
For the compound `COc1cc2nccc(Oc3ccc(NC(=O)c4nn(CCO)cc4OCC(F)(F)F)cc3C)c2cc1OC` [Compound 56], the IC50 was under 1000 nM with CSF1R (M-NFS-60 cells) and under 500 nM at CSF1R.
In the case of `COc1cc2nccc(Oc3ccc(NC(=O)c4nn(C5CCCC5)cc4OCC(F)(F)F)cc3C)c2cc1OC` [Compound 57], the values for the IC50 in the assay with CSF1R (M-NFS-60 cells) and against CSF1R were under 1000 nM and 500 to 1000 nM, respectively.
In the same order, the values of `COc1cc2nccc(Oc3ccc(NC(=O)c4nn(CC(C)C)cc4OCC(F)(F)F)cc3C)c2cc1OC` [Compound 58] are 1000 to 10000 nM and at least 1000 nM.
In the same order, the values of `COc1cc2nccc(Oc3ccc(NC(=O)c4nn(CCO)cc4OCC(F)(F)F)cc3)c2cc1OC` [Compound 59] are under 1000 nM and under 500 nM.
For `COc1cc2nccc(Oc3ccc(NC(=O)c4nn(C5CCCC5)cc4OCC(F)(F)F)cc3)c2cc1OC` [Compound 60] the same measures were 1000 to 10000 nM and 500 to 1000 nM.
